Data on one molecule can be found in patent publication US9034863B2, “Compositions and methods for inhibiting entry of a hepatic virus” (The Board of Trustees of the University of Illinois, priority 2008, dated 2015).

The test system of one data set is HCVcc JFH-1. Put plainly: Chronic HCVcc infection in growing Huh7 cells, long-term treatment, RT-qPCR (FIG. 2). The format is cell-based, Hepatitis C virus (HCV). The settings on record: alone, throughout ~70 days of treatment. The method, then: Cultures of growing Huh7 cells were inoculated with HCVcc JFH-1 at an MOT of 0.01 FFU/cell. Infected cultures were maintained for an additional 10 days to allow HCV RNA to reach steady-state levels. FIG. 2A, Cultures were mock treated, treated with ezetimibe alone (30 μM), IFN-α (100 U/ml) alone, or ezetimibe (30 μM) plus IFN-α (100 U/ml) in combination. Treatments were maintained as cultures were passaged. FIG. 2B, After 70 days IFN-α or combination ezetimibe plus IFN-α treatment, treatment was either continued (open shapes) or discontinued (filled shapes). […] Results are graphed as means±s.e.m. for triplicate samples. The data presented are representative of two independent experiments.
For experiments in growing cells, Huh7 cells seeded at 1×10^6 cells in a T75 cell culture flask (Corning) were infected with JFH-1 HCVcc at a MOI of 0.01 FFU/cell and subsequently cultured for 10 days to allow HCV RNA to reach steady-state levels. On day 10 post-infection, cells were split 1:4 and re-plated into T25 culture flasks (Corning). Twenty four hours post seeding, individual flasks were mock-treated with cDMEM or treated with cDMEM containing IFN-α (100 U/ml), ezetimibe (30 μM) or a combination of both IFN-α (100 U/ml) and ezetimibe (30 μM). Throughout the course of the experiment, fresh media with treatments was replenished every two days and cells were trypsinized just before reaching confluence and re-plated at a dilution of 1:3 to maintain active cell growth. […]
Total cellular RNA was purified using an ABI PRISM™ 6100 Nucleic Acid PrepStation (Applied Biosystems), as per the manufacturer's instructions. […] HCV JFH-1 and human GAPDH RNA transcript levels were determined relative to a standard curve derived from serial dilutions of plasmid containing the JFH-1 HCV cDNA or the human GAPDH coding sequence, respectively. […]
To confirm HCV clearance, drug treatments were subsequently discontinued on day 70 and HCV RNA levels were monitored for an additional 30 days.
On the technique in general: Quantitative PCR measures a nucleic acid by following its amplification.

A further data set concerns Huh7 cells. The data set can be described thus: Cytotoxicity assay (adenylate kinase release, TOXILIGHT). The format is cell-based, human. From the text:
The […] Plus Cell Proliferation assay kit (Lonza, Walkersville, Md.), which incorporates bioluminescent detection of cellular ATP as a measure of cell viability and proliferation, was used according to the manufacturer's instructions. Briefly, mock-treated and drug-treated cultures were lysed in Cell Lysis reagent for […]. One hundred μl of culture medium was transferred to white 96-well plates (BD Biosciences) containing ATP detection reagent and luminescence, expressed as relative light units (RLU), was measured (Fluostar OPTIMA). To assess drug-induced cellular toxicity, a bioluminescence-based assay (The TOXILIGHT BioAssay Kit, Lonza) that measures adenylate kinase (AK) released from damaged cells was used as per the manufacturer's instructions. […] One hundred μl of AK detection reagent was then added to each well, and luminescence (RLU) was measured (Fluostar OPTIMA).
To ensure that the inhibition observed was not due to ezetimibe-induced changes in cell proliferation or cytotoxicity, cellular ATP was measured as a read-out of Huh7 cell viability and proliferation and cellular toxicity by adenylate kinase release following treatment with increasing doses of ezetimibe. […] Furthermore, to test the specificity of the observed HCV inhibition, the effect of ezetimibe on entry of another flavivirus, Dengue virus (DNV), was assessed.

`O=C1[C@H](CC[C@H](O)c2ccc(F)cc2)[C@@H](c2ccc(O)cc2)N1c1ccc(F)cc1` [ezetimibe, 1-(4-fluorophenyl)-(3R)-[3-(4-fluorophenyl)-(3S)-hydroxypropyl]-(45)-(4-hydroxyphenyl)-2-azetidinone]: the “intracellular HCV steady-state RNA levels” value in the data set on HCVcc JFH-1 was “did not reduce”. The “cellular toxicity (adenylate kinase release)” value in the data set with Huh7 cells (increasing doses) was “did not inhibit cell proliferation or induce cellular toxicity”. Moreover, the cytotoxicity entry in the data set with Huh7 cells (treatment of Huh7 cells for 12 hours, concentrations tested) was “not cytotoxic”.
